{"source": "paper PMC4345494", "about": "“Cheaper faster drug development validated by the repositioning of drugs against neglected tropical diseases” (Journal of the Royal Society Interface, 2015)", "target": "P. vivax DHFR (dihydrofolate reductase) (Plasmodium vivax, UniProt O02604)", "sequence (O02604 1-237)": "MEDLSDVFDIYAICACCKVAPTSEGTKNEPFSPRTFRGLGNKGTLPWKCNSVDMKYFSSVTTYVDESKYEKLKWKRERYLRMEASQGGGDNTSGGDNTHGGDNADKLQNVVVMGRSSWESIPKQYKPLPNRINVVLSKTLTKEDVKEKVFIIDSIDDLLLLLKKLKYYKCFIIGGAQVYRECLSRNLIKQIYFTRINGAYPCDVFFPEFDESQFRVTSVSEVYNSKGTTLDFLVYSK", "test": "DHFR enzyme inhibition assay (supported by growth assay of yeast expressing PvDHFR)", "format": "biochemical"}
{"smiles": "CO[C@@H]1[C@H](OC(=O)NC(=O)CCl)CC[C@]2(CO2)[C@H]1[C@@]1(C)O[C@@H]1CC=C(C)C", "note": "[TNP-470]", "values": [{"measurement": "IC50", "result": 0.16, "unit": "µM"}]}
